Assay results: PMC7686308, “Overcoming the blood–brain barrier by Annexin A1-binding peptide to target brain tumours” (British Journal of Cancer, 2020)
Peptide text beside a SMILES is read from it.

Columns and labels:
[1] = system: ANXA1 with a free N-terminus; details: plate binding analysis; cited from earlier work
Excerpt: (§1) We next assessed IF7 binding to recombinant human ANXA1 protein and human MC16 peptide in three ways (Fig. 2a-c). First, we added biotinylated IF7 in solution to plastic wells coated with monomeric MC16 and determined IF7 binding by peroxidase-conjugated streptavidin and a peroxidase colour reaction (Fig. 2a). […] Second, we assessed binding of IF7 and MC16 in solution by fluorescence correlation spectrometry (FCS) ( ...

[2] = system: N-terminally His-Tagged ANXA1; details: plate binding analysis; cited from earlier work
Excerpt: as §1

[3] = system: N-terminally His-tagged ANXA1; assay: FCS binding to N-terminally His-tagged ANXA1; set-up: species or system human; details: IF7C-A546, 37 °C, 1 h, diffusion time
Protocol: (§2) A mixture of IF7C-A546 with Anxa1 or MC16 (50 μl) was loaded into each well of a 96-well plate and incubated at 37 °C for 1 h. FCS was performed with the MF20 analytical system (Olympus) using a 543 nm He–Ne laser for illumination. Each sample was measured five times with a data acquisition time of 10 sec per measurement. IF7C(RR) binding was defined as an increase in translational diffusion time relative to a control.
(§3) Fig. 2 Binding of IF7 to the ANXA1 N-terminal domain and full-length ANXA1 protein in vitro. a Plate binding assay of N-terminal biotinylated IF7C(RR) to human MC16 peptide and its mutants. Each synthetic MC16 and its mutant peptide (10 nmoles) was bound to maleimide-activated plastic well through its C-terminal cysteine residue. Biotinylated IF7C(RR) peptide (1 μg/mL) was added to each well and binding of biotinylated peptide was detected by peroxidase-conjugated streptavidin and peroxidase colour reaction. b FCS analysis of IF7 with ANXA1 (left) and with MC16 peptides (right) in solution. […] The proposed model was further validated by dG scoring, which was calculated using MOE software with GBVI/WSA, a program allows us to compare calculated and observed energetics.[59] The IF7 docking pose was calculated to be −3.7 kcal/mol.

mouse MC16 = assay: Plate binding assay to mouse MC16 peptide
Protocol: as §3
Fig. 3 Targeting of IF7 to the brain tumour vasculature in vivo in the mouse. a Binding of IF7 and control peptides to mouse and human MC16 peptides by plate assay. Biotinylated IF7C(RR) and control C(RR) was assessed for their binding to MC16 in a similar manner as in Fig. 2a. b Targeting of fluorescent-labelled IF7 peptide to the brain tumour vasculature in the mouse. […] Blue fluorescence (left panels) represents nuclear Hoechst 33342 and green fluorescence (right) represents Alexa 488. […]

[4] = system: MC16 mutant peptides F7A, K9A and E15A; assay: Plate binding assay to MC16 mutant peptides; set-up: species or system human; details: biotinylated IF7C(RR) 1 μg/mL, mutant peptide 10 nmoles coated
Protocol: (§4) We next assessed IF7 binding to recombinant human ANXA1 protein and human MC16 peptide in three ways (Fig. 2a-c). First, we added biotinylated IF7 in solution to plastic wells coated with monomeric MC16 and determined IF7 binding by peroxidase-conjugated streptavidin and a peroxidase colour reaction (Fig. 2a). […] Thus, we modelled the ANXA1 dimer using the Zdock module for protein–protein docking.[26] The IF7 docking pose was calculated to be −3.7 kcal/mol (Fig. 2d).
as §3

[5] = Histology of tumours from mice injected with IF7; assay type: in vivo, mouse; details: histological analysis, data not shown
human MC16 peptide = assay: Plate binding assay to human MC16 peptide; details: biotinylated IF7C(RR) 1 μg/mL, MC16 10 nmoles coated, peroxidase-streptavidin
Protocol: as §4, §3

[6] = system: ANXA1 exhibiting a free N-terminus; assay: FCS binding to ANXA1 with free N-terminus; set-up: species or system human; details: IF7C-A546, 37 °C, 1 h, increase in diffusion time
Protocol: as §2, §3

tetrameric MC16 = assay: FCS binding to tetrameric MC16; set-up: species or system human; details: IF7C-A546, 37 °C, 1 h, diffusion time
monomeric MC16 = assay: FCS binding to monomeric MC16; set-up: species or system human; details: IF7C-A546, 37 °C, 1 h, diffusion time
Protocol: as §2, §3

[7] = system: subcutaneous colon tumours; details: mouse, in vivo; cited from earlier work

CC[C@H](C)[C@H](N)C(=O)N[C@@H](Cc1ccccc1)C(=O)N[C@@H](CC(C)C)C(=O)N[C@@H](CC(C)C)C(=O)N[C@@H](Cc1c[nH]c2ccccc12)C(=O)N[C@@H](CCC(N)=O)C(=O)N[C@@H](CCCNC(=N)N)C(=O)N[C@@H](CS)C(=O)N[C@@H](CCCNC(=N)N)C(=O)N[C@@H](CCCNC(=N)N)C(=O)O [IF7] (H-IFLLWQRCRR-OH; N-terminus and C-terminus assumed)
plate binding to ANXA1 with free N-terminus [1]: IF7 bound ANXA1 with a free N-terminus
plate binding to N-terminally His-Tagged ANXA1 [2]: not N-terminally His-Tagged ANXA1
binding in solution to N-terminally His-tagged ANXA1 [3]: not to N-terminally His-tagged ANXA1
binding to human and mouse MC16 compared (mouse MC16; Fig. 3a, human versus mouse MC16): IF7 bound both human and mouse MC16 peptides equally
binding to mouse MC16 (mouse MC16; biotinylated IF7C(RR), in a similar manner as in Fig. 2a): IF7 binding to N-terminal domain of mouse MC16 was confirmed
IF7 binding to MC16 mutants [4]: binding was significantly reduced
signs of inflammation in tumours [5]: did not reveal signs of inflammation
IF7 binding to MC16 (human MC16 peptide): IF7 bound to WT MC16
binding in solution to untagged ANXA1 [6]: IF7 bound to ANXA1 exhibiting a free N-terminus
binding in solution to tetrameric MC16 (tetrameric MC16): IF7 bound to tetrameric rather than monomeric MC16
binding in solution to MC16 monomer (monomeric MC16): the diffusion time of IF7 with MC16 monomer did not increase
fluorescent signals 15 min after i.v. injection [7]: fluorescent signals are seen in vesicles at mostly the basal side of vasculature
fluorescent signals 40 min after i.v. injection [7]: fluorescence is seen in the stroma and in tumour cells
